From US20080254106A1 (SWITCH BIOTECH AG, priority 2004, published 2008)

What was measured:
cholinergic system = conditions: cited from earlier work
[1] = system: 5-hydroxytryptamine reuptake; conditions: cited from earlier work
dopaminergic system = conditions: cited from earlier work
monoamine oxidase A = target: T1, monoamine oxidase A (Homo sapiens, UniProt P21397); conditions: proposed mechanism of action; cited from earlier work
T1 sequence (P21397 1-527): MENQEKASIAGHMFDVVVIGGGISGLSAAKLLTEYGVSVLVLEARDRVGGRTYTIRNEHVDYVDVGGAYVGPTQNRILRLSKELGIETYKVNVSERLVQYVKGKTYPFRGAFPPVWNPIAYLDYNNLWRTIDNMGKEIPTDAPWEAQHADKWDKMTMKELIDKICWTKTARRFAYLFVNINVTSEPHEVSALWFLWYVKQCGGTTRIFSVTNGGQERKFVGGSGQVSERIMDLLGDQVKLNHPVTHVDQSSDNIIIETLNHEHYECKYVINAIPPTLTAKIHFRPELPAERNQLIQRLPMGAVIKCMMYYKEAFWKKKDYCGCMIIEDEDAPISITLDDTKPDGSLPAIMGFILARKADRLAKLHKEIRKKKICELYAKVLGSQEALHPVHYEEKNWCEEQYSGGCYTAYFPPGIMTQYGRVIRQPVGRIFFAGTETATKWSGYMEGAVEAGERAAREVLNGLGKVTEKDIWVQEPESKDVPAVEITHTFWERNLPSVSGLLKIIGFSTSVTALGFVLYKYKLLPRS

HaCaT keratinocytes = assay: Proliferation of HaCaT keratinocytes (BrDU incorporation); assay type: cell-based; conditions: Homo sapiens, 48 hours treatment, relative to FCS stimulated positive control, mean of at least four experiments
Protocol: As a negative control cells were incubated with KBM.
For this purpose 5×10^3 HaCaT keratinocytes were seeded into 60 wells of a 96 well-plate in 200 μl KBM/10% FCS each and incubated for 24 hours at 37° C. […] At the end of the second incubation period the medium was removed and cell proliferation was determined by BrDU incorporation (Roche, #1 669 915) according to the manufacturer's instructions. […] All other values were divided by the 100% value to obtain the relative percentage of proliferation. […] At least four independent experiments were performed.

[2] = system: transplanted human psoriatic skin biopsies; assay: Human psoriatic skin transplant SCID mouse model; assay type: in vivo, SCID mice; conditions: 50 mg/kg daily intraperitoneal, four weeks, in comparison to vehicle control animals
Protocol: SCID mice were transplanted with human psoriatic skin biopsies. Two weeks after surgery therapy started. […] After four weeks of therapy the mice were sacrificed and biopsies were taken. 4 μm slices of the biopsies were stained with Masson trichrom. Epidermal areas were calculated. […] Treatment started two weeks after the transplantation. […] For therapy, 300 μl of a 5 mg/ml solution was daily injected intraperitonally (=50 mg/kg). The control group was injected in the same way with 300 μl vehicle. After four weeks the animals were sacrificed. The biopsies were removed, histologically stained (Masson trichrom) and examined for changes of the epidermal area.

[3] = system: α-CD3 stimulated peripheral blood mononuclear cells; assay: Proliferation of anti-CD3 stimulated PBMCs/T cells ([3H]-thymidine incorporation); assay type: cell-based
Protocol: Peripheral blood mononuclear cells (PBMCs) were isolated by Ficoll-gradient centrifugation from peripheral blood. 1×10^6 PBMCs/ml were re-suspended in RPMI/10% fetal calf serum (FCS) in 96-well plates in a concentration of 2×10^5 cells/well. […] As positive and negative controls PBMCs were used, which were stimulated by anti-CD3-antibody and non-stimulated PBMCs, respectively. The final concentration of the solvent DMSO was 0.1% in all examined wells. After two further days of incubation the cells were incubated with 1 μCi per well [^3H]-thymidine for 18 hours. The cells were then recovered on glass fibre filters by using a Micro 96 Harvester (Skatron Instruments, Lier, Norway). The incorporated radioactivity was analysed with a Packard Matrix 9600 Counter (Can berra Packard, Schwadorf, Austria). The experiments were carried out with the blood of three different donors. […] All other values were divided by the 100% value to obtain the relative percentage of proliferation.

TNFα = assay: Secretion of TNFα of LPS stimulated THP-1 cells (ELISA); assay type: cell-based; conditions: 50 ng/ml LPS, six hours, concentration of 10 μmol/l and higher
Protocol: After stimulation with 50 ng/ml LPS the release of TNFα was determined.
After 2 h cells were stimulated with 50 ng/ml LPS. Six hours after LPS addition, culture supernatants were collected. TNFα concentrations were measured using an enzyme linked immunosorbent assay according to manufacturers protocol (R&D systems, #DTA00C). The TNFα concentrations reached after LPS stimulation without further treatment was set to 100%.

noradrenaline reuptake = conditions: cited from earlier work
[4] = DTH (oxazolone) mouse ear swelling model; assay type: in vivo; conditions: topical 4%, 1%, 0.1% and 0.01% in acetone/olive oil, compared to placebo control
Protocol: A mixture of acetone/olive oil (4:1 vol/vol) is used as vehicle. Ear thickness is measured before start of the treatment (day 0), before challenge (day 6), and 24 h after challenge (d7, ear swelling response) (instrumentation e.g. Mitutoyo-Messgeräte GmbH). In addition, at the end of the experiment ear weights are determined by weighing 8 mm punch biopsies taken from both ears of each individual animal.

Cc1ccc2c(c1)c1c3n2CCNC3CCC1 (centres unmarked) [Pirlindole, 2,3,3a,4,5,6-hexahydro-8-methyl-1H-pyrazino[3,2,1-jk]carbazole]
Effect on the cholinergic system (cholinergic system): no effect
Effect on 5-hydroxytryptamine reuptake [1]: inhibitory effect
Effect on the dopaminergic system (dopaminergic system): no effect
Inhibition of monoamine oxidase A (monoamine oxidase A): selective and reversible inhibition
IC50 (HaCaT keratinocytes): 47 µM
Epidermal area of the transplants [2]: clearly decreased
IC50 ([3]; PBMC, 10 μg/ml soluble anti-CD3-antibody, [3H]-thymidine, three donors, mean): 16 µM
Inhibitory effect on proliferation in vitro ([3]; at a concentration of Pirlindole of 10 μmol/l (examples 2, 3)): inhibitory effect
Release of TNFα (TNFα): clear inhibition
Effect on noradrenaline reuptake (noradrenaline reuptake): inhibitory effect
Parameters of inflammation severity (ear weight, ear thickness) [4]: improvement of one or more parameters of inflammation severity
